Test results taken from patent publication US10106524B2, “2,3,4,5-tetrahydropyridin-6-amine and 3,4-dihydro-2H-pyrrol-5-amine compound inhibitors of beta-secretase” (Janssen Pharmaceutica NV, priority 2015, dated 2018).

Tests used:
[1] = target: T1, recombinant BACE2 protein (Homo sapiens, UniProt Q9Y5Z0); experiment: BACE2 biochemical FRET based assay; details: BACE2 0.4 μg/nil, 450 minutes, 10 μM substrate, pH 5.0; read-out: Biochemical FRET based assay pIC50 (BACE2) (converted)
T1 construct: recombinant BACE2 protein in a final concentration of 0.4 μg/nil
T1 sequence (Q9Y5Z0 63-518): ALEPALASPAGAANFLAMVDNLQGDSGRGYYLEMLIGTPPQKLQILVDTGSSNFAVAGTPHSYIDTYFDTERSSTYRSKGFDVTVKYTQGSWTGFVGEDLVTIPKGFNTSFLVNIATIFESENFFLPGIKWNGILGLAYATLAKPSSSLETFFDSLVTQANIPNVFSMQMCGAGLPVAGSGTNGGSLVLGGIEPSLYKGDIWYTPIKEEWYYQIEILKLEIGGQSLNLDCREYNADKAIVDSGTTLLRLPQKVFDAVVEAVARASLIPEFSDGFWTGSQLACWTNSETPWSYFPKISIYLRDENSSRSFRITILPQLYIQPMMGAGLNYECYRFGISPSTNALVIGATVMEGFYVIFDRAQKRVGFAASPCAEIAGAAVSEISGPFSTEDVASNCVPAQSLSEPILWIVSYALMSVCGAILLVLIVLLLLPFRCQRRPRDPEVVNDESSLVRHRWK
From the text: BACE2 Biochemical FRET Based Assay
(§1) This assay is a Fluorescence Resonance Energy Transfer Assay (FRET) based assay. The substrate for this assay contains the ‘Swedish’ Lys-Met/Asn-Leu mutation of the amyloid precursor protein (APP) beta-secretase cleavage site. This substrate also contains two fluorophores: (7-methoxycoumarin-4-yl) acetic acid (Mca) is a fluorescent donor with excitation wavelength at 320 nm and emission at 405 nm and 2,4-Dinitrophenyl (Dnp) is a proprietary quencher acceptor. […] Upon cleavage by the beta-secretase, the fluorophore Mca is separated from the quenching group Dnp, restoring the full fluorescence yield of the donor. The increase in fluorescence is linearly related to the rate of proteolysis.
Briefly in a 384-well format recombinant BACE2 protein in a final concentration of […] is incubated for 450 minutes at room temperature with 10 μM substrate in incubation buffer (50 mM Citrate buffer pH 5.0, 0.05% PEG, no DMSO) in the absence or presence of compound. Next the amount of proteolysis is directly measured by fluorescence measurement at T=0 and T=450 (excitation at 320 nm and emission at 405 nm). Results are expressed in RFU (Relative Fluorescence Units), as difference between T450 and T0.
(§2) A best-fit curve is fitted by a minimum sum of squares method to the plot of % Controlmin versus compound concentration. From this an IC50 value (inhibitory concentration causing 50% inhibition of activity) can be obtained.

[2] = system: Abeta 1-42 produced and secreted by SKNBE2 cells expressing hAPP695; experiment: Cellular αLisa assay in SKNBE2 cells - Abeta 42; type: cell-based, human; details: Homo sapiens, incubated for 18 hours, read-out: Cellular αLisa assay in SKNBE2 cells Abeta 42 pIC50 (converted)
Method: (§3) Cellular αLisa Assay in SKNBE2 Cells
(§4) In two αLisa assays the levels of Abeta total and Abeta 1-42 produced and secreted into the medium of human neuroblastoma SKNBE2 cells are quantified. The assay is based on the human neuroblastoma SKNBE2 expressing the wild type Amyloid Precursor Protein (hAPP695). The compounds are diluted and added to these cells, incubated for 18 hours and then measurements of Abeta 1-42 and Abeta total are taken. Abeta total and Abeta 1-42 are measured by sandwich αLisa. αLisa is a sandwich assay using biotinylated antibody AbN/25 attached to streptavidin coated beads and antibody Ab4G8 or cAb42/26 conjugated acceptor beads for the detection of Abeta total and Abeta 1-42 respectively. In the presence of Abeta total or Abeta 1-42, the beads come into close proximity. The excitation of the donor beads provokes the release of singlet oxygen molecules that trigger a cascade of energy transfer in the acceptor beads, resulting in light emission. Light emission is measured after 1 hour incubation (excitation at […] and emission at 615 nm).
as §2

[3] = system: Abeta total produced and secreted by SKNBE2 cells expressing hAPP695; experiment: Cellular αLisa assay in SKNBE2 cells - Abeta total; type: cell-based; details: Homo sapiens, incubated for 18 hours, read-out: Cellular αLisa assay in SKNBE2 cells Abeta total pIC50 (converted)
Method: as §3, §4, §2

[4] = target: T2, recombinant BACE1 protein (Homo sapiens, UniProt P56817); experiment: BACE1 biochemical FRET based assay - Method 2; details: BACE1 0.04 μg/ml, 450 minutes, 20 μM substrate, pH 5.0; read-out: Biochemical FRET based assay- Method 2 pIC50 (converted)
T2 construct: recombinant BACE1 protein in a final concentration of 1 μg/ml
From the text: (§5) BACE1 Biochemical FRET Based Assay
as §1, with “this assay is an APP derived 13 amino acids peptide that contains the” for “this assay contains the”, “cleavage by BACE1, the fluorophore” for “cleavage by the beta-secretase, the fluorophore”
Briefly in a 384-well format recombinant BACE1 protein in a final concentration of 0.04 μg/ml is incubated for 450 minutes at room temperature with 20 μM substrate in incubation buffer (50 mM Citrate buffer pH 5.0, 0.05% PEG) in the presence of compound or DMSO. Next the amount of proteolysis is directly measured by fluorescence measurement (excitation at 320 nm and emission at 405 nm) at different incubation times (0, 30, 60, 90, 120 and 450 min). For every experiment a time curve (every 30 min between 0 min and 120 min) is used to determine the time where we find the lowest basal signal of the high control. The signal at this time (Tx) is used to subtract from the signal at 450 min. Results are expressed in RFU, as difference between T450 and Tx.
as §2

[5] = target: T2, recombinant BACE1 protein; experiment: BACE1 biochemical FRET based assay - Method 1; details: BACE1 1 μg/ml, 120 minutes, 10 μm substrate, pH 5.0; read-out: Biochemical FRET based assay - Method 1 pIC50 (converted)
From the text: as §5
as §1, with “this assay is an APP derived 13 amino acids peptide that contains the” for “this assay contains the”, “cleavage by BACE1, the fluorophore” for “cleavage by the beta-secretase, the fluorophore”
Briefly in a 384-well format recombinant BACE1 protein in a final concentration of 1 μg/ml is incubated for 120 minutes at room temperature with 10 μm substrate in incubation buffer (40 mM Citrate buffer pH 5.0, 0.04% PEG, 4% DMSO) in the absence or presence of compound. Next the amount of proteolysis is directly measured by fluorescence measurement at T=0 and T=120 (excitation at 320 nm and emission at 405 nm). Results are expressed in RFU (Relative Fluorescence Units), as difference between T120 and T0.
as §2

T2 sequence (P56817 46-501): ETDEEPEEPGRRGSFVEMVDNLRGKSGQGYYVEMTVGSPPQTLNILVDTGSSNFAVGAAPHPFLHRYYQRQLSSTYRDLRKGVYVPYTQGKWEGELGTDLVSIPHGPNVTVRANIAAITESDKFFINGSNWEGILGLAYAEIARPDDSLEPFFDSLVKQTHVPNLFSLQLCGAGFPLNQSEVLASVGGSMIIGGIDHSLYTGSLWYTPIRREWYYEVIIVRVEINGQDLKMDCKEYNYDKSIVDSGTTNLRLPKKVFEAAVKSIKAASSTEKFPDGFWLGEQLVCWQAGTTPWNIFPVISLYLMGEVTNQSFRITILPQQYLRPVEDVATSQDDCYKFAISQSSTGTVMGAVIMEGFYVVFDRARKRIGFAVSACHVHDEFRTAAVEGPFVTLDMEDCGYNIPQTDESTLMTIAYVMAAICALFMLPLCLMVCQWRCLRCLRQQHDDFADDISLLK

Structure (SMILES) | IC50 [1] | IC50 [2] | IC50 [3] | melting point | IC50 [4] | IC50 [5]
CC1(c2cc(NC(=O)c3ccc(Cl)cn3)ccc2F)N=C(N)CC1C(F)(F)F (racemic) [Compound 15, (±)-N-(3-((2S*,3R*)-5-amino-2-methyl-3-(trifluoromethyl)-3,4-dihydro-2H-pyrrol-2-yl)-4-fluorophenyl)-5-chloropicolinamide] | 912 nM | 100 nM | 129 nM | 240.62 °C | 490 nM | 
Cc1nc(C(=O)Nc2ccc(F)c(C3(C)N=C(N)CC3C(F)(F)F)c2)co1 (racemic) [Compound 16, (±)-N-[3-1[(2S*,3R*)-5-amino-2-methyl-3-(trifluoromethyl)-3,4-dihydropyrrol-2-yl]-4-fluoro-phenyl]-2-methyl-oxazole-4-carboxamide] | 537 nM | 251 nM | 240 nM | 207.05 °C | 1150 nM | 
COc1cccnc1Nc1ccc(F)c(C2(C)N=C(N)CC2C(F)(F)F)c1 (racemic) [Compound 21, (+)-N-[3-[(2S*,3R*)-5-amino-2-methyl-3-(trifluoromethyl)-3,4-dihydropyrrol-2-yl]-4-fluoro-phenyl]-3-methoxy-pyridin-2-amine] | 933 nM | 389 nM |  | 184.2 °C | 2400 nM | 
CC1(c2cc(NC(=O)c3ccc(Br)cn3)ccc2F)N=C(N)CC1C(F)(F)F (racemic) [Compound 40, (±)-N-[3-[(2S*,3R*)-5-amino-2-methyl-3-(trifluoromethyl)-3,4-dihydropyrrol-2-yl]-4-fluoro-phenyl]-5-bromo-pyridine-2-carboxamide] |  |  |  | 243.4 °C | 324 nM | 
COCCOc1cnc(C(=O)Nc2ccc(F)c([C@@]3(C)N=C(N)C[C@H]3C(F)(F)F)c2)cn1 (relative stereo) [Compound 23, (±)-N-[3-[(2S*,3R*)-5-amino-2-methyl-3-(trifluoromethyl)-3,4-dihydropyrrol-2-yl]-4-fluoro-phenyl]-5-(2-methoxyethoxy)pyrazine-2-carboxamide] | > 10000 nM | 347 nM |  | 165.48 °C | 776 nM | 
COc1cnc(C(=O)Nc2cccc([C@]3(C)C[C@@H](C(F)(F)F)CC(N)=N3)c2)cn1 [Compound 3, N-{3-[(2S,4R)-6-amino-2-methyl-4-(trifluoromethyl)-2,3,4,5-tetrahydropyridin-2-yl]phenyl}-5-methoxypyrazine-2-carboxamide] | 339 nM | 9.55 nM | 8.71 nM | 171.93 °C | 25.1 nM | 31.6 nM
COc1cnc(C(=O)Nc2cccc([C@]3(C)C[C@H](C(F)(F)F)CC(N)=N3)c2)cn1 [Compound 4, N-{3-[(2S,4S)-6-amino-2-methyl-4-(trifluoromethyl)-2,3,4,5-tetrahydropyridin-2-yl]phenyl}-5-methoxypyrazine-2-carboxamide] | > 10000 nM | 2340 nM | 1950 nM | 138.66 °C | > 10000 nM | > 30200 nM
C[C@@]1(c2cc(NC(=O)c3ccc(C#N)cn3)ccc2F)C[C@@H](C(F)(F)F)CC(N)=N1 [Compound 10] | 25.7 nM | 4.27 nM | 3.8 nM | 205.8 °C | 3.63 nM | 36.3 nM
C[C@@]1(c2cc(NC(=O)c3ccc(F)cn3)ccc2F)C[C@@H](C(F)(F)F)CC(N)=N1 [Compound 12] | 10.7 nM | 7.59 nM | 7.76 nM | 199.22 °C | 15.5 nM | 51.3 nM
C[C@@]1(c2cc(NC(=O)c3ccn(C(F)F)n3)ccc2F)C[C@@H](C(F)(F)F)CC(N)=N1 [Compound 13] | 3.09 nM | 22.4 nM | 24 nM | 139.83 °C | 6.17 nM | 38.9 nM
